Data as given in patent US20110027293A1, “METHODS AND COMPOSITIONS FOR THE INHIBITION OF VIRAL INFECTION BY TARGETING INTRACELLULAR TRAFFICKING” (priority 2008, published 2011).

What was measured:
[1] = system: MoMLV; experiment: GFP expression of cells infected with MoMLV construct with and without EHNA; format: cell-based, Moloney murine leukemia virus (MoMLV); settings: relative to infection in the absence of EHNA; FIG. 15A vs 15C
Protocol: (§1) The levels of infection are based on the inhibition of GFP expression, which was determined by infection of cells by MoMLV and HCV viral constructs that included cloned GFP. To determine the consequences of dynein inhibition on the viral life cycle, the expression of viral genes was correlated to the expression (or loss of expression) of GFP. Pictured are cells infected with MoMLV and Hepatitis C with and without EHNA-induced dynein inhibition. Brightness is an indication of GFP expression.
(§2) ATPase activity was inhibited using an anti-dynein small organic molecule (erythro-9-(2-hydroxy-3-nonyl)adenine; EHNA) in another set of experiments. EHNA was obtained from A. G. Scientific and dissolved in Dubelco's Modified Eagle's Medium (DMEM). The solution was added to several sets of treated cells with final concentrations of 0.1 μM, 0.2 μM, 0.5 μM, and 1 μM (FIG. 14).
(§3) To determine the consequences of the loss of cytoplasmic dynein motor activity on the viral life cycle, we cloned the green fluorescent protein (GFP) gene into the viral genomes and assessed GFP expression upon loss of cytoplasmic dynein motor activity (FIG. 15).

[2] = system: hepatitis C virus (HCV); experiment: GFP expression of cells infected with HCV construct with and without EHNA; format: cell-based; settings: relative to infection in the absence of EHNA; FIG. 15B vs 15D
Protocol: as §1, §2, §3

## CCCCCC[C@@H]([C@@H](C)O)n1cnc2c(N)ncnc21 (racemic) [EHNA, erythro-9-(2-hydroxy-3-nonyl)adenine]
[1]
  infection by MoMLV (inhibition of GFP expression): inhibits infection
[2]
  infection by hepatitis C virus (inhibition of GFP expression): inhibits infection
